Reference: patent US11076597B2, “High stress resistant plant growth regulator and preparation method and use thereof” (SHANGHAI INSTITUTES FOR BIOLOGICAL SCIENCES, CHINESE …, priority 2015, dated 2021)
“Also recorded” adds a separate entry of the source.

Assays:
[1] = target: T1, PYL2 receptor-HAB1 protein phosphatase complex (Arabidopsis thaliana, UniProt O80992); experiment: AlphaScreen assay, PYL2 receptor binding to HAB1; assay type: biochemical; conditions: fraction of the EC50 of ABA; FIG. 2c, 2e-2g
T1 construct: made in house; host or cells: E. coli BL21 (DE3)
T1 sequence (O80992 14-188): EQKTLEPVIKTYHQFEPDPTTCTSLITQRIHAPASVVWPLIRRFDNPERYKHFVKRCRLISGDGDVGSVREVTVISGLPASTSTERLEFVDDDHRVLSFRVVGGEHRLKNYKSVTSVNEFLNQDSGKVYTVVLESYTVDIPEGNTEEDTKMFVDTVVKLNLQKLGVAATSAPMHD
T1 sequence (Q9CAJ0 172-511 partner limits assumed): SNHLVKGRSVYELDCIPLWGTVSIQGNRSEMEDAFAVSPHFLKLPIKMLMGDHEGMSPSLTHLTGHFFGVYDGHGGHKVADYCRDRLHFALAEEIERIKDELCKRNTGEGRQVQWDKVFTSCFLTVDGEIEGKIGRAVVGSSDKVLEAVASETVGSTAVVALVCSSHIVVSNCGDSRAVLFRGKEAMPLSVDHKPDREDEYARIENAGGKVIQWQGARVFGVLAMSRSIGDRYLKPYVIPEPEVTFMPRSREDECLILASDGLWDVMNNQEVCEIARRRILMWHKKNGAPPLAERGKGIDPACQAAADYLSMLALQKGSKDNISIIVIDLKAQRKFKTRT
Procedure: The AlphaScreen kit (available from Perkin Elmer) was used, and the method was as follows: a 10× buffer (50 mM MOPS, pH 7.4, 50 mM NaF, 50 mM CHAPS, 0.1 mg/ml bovine serum albumin) diluted at 1:10, each of 100 nM HAB1 with Biotin tag sequence and PYR1/PYL1/PYL2/PYL7/GmPYL6/OsPYL2 protein with dual tags of 6×His and SUMO sequences, corresponding concentrations of (+)-ABA/0224/0304/0706/0708/0713/0715/0428/NC0F4, and 5 μg/ml donor beads and acceptor beads (available from Perkin Elmer) were contained in 150 μl of experimental system. After incubating for 1.5 hours at room temperature in the dark, it was placed into an Envision Plate Reader (available from Perkin Elmer) under the programmed AlphaScreen procedure for readings.
AlphaScreen technology was used to test the ability of the compounds of the present invention to promote PYL receptor binding to PP2C protein phosphatase (HAB1).

soybean [2] = experiment: Leaf transpiration experiment, soybean; assay type: in vivo; conditions: 20 μM spray 14 days after sowing, two days after spraying; FIG. 5
Procedure: ABA synthesis mutant aba2-1 was used in Arabidopsis leaf transpiration experiment. […] Therefore, this mutant is used to exclude the effect of endogenous ABA on the transpiration experiment. The plants were sprayed with a solution containing 0.05% tween-20 and corresponding concentrations of (+)-ABA/0224/0304/0706/0715/0428 or 0.05% Tween-20 and 0.05% DMSO (control) after three weeks of continuous watering with an amount of 1.2 ml/pot. Leaf transpiration experiments of soybeans were conducted at 26° C. with long-day lighting and soybeans were sprayed with a solution containing 0.1% tween-20 and 20 μM (+)-ABA/0224/0304 compound or 0.1% Tween-20 and 0.05% DMSO (control) 14 days after sowing with an amount of 4 ml/pot; the leaf transpiration experiments of cottons were sprayed with a solution containing 0.1% tween-20 and 20 μM (+)-ABA/0224 compound or 0.1% Tween-20 and 0.05% DMSO, respectively, 25 days after sowing with an amount of 4 ml/pot; the leaf transpiration experiments of wheats were sprayed with a solution containing 0.1% tween-20 and 100 μM (+)-ABA/0224 compound or 0.1% Tween-20 and 0.05% DMSO (control) 18 days after sowing with an amount of 6 ml/pot. Images were taken daily using the FLIR A655sc thermal imager at the same time before and after spraying.
In this experiment, the temperature change of leaf surface was observed and recorded by an infrared camera, thus reflecting the strength of plant transpiration. The stronger the transpiration, the lower the leaf temperature.

soybean [3] = experiment: Soil drought experiment, soybean; assay type: in vivo
Procedure: Soybean, cotton and wheat for leaf transpiration experiments were used simultaneously for soil drought experiments, each pot was filled with the same weight of soil to reduce experimental error. All the soybean plants were subjected to a long-day culture at 26° C. 14 days after sowing, watering was stopped and the plants with the consistent growth condition were selected for drought treatment. At the start of the drought, a solution containing 0.1% Tween-20 and 20 μM (+)-ABA/0224/0304 or 0.1% Tween-20 and 0.05% DMSO (control) was sprayed onto the leaf surface once with a spray amount of 4 ml solution/pot. Meanwhile, the position of the pot was changed and re-watered 6 days after the drought, and the photos were taken 1 day after re-watering. The drought experiment of cotton was similar to that of soybeans, watering was stopped 25 days after sowing, the plants with the consistent growth condition were selected for drought treatment. At the start of the drought, a solution containing 0.1% Tween-20 and 20 μM (+)-ABA/0224 or 0.1% Tween-20 and 0.05% DMSO (control) was sprayed onto the leaf surface once with a spray amount of 4 ml solution/pot, and then sprayed once every 3 days. Meanwhile, the position of the pot was changed and re-watered 6 days after the drought, and the photos were taken before re-watering and 1 day after re-watering. In the drought experiment of wheat, the wheat with the consistent growth condition 16 days after sowing was selected for the drought treatment, at the start of the drought, a solution with 0.1% Tween-20 and 100 μM (+)-ABA/0224 or 0.1% Tween-20 and 0.05% DMSO (control) was sprayed once, and then sprayed once every 3 days with a spray amount of 4 ml/pot. Meanwhile, the position of the pot was changed and the photos were taken 6 days after the drought.
Soil drought experiments used for compound 0428 on soybean and maize were similar to that used for compound 0224 on soybeans, with only one plant contained in each pot. All soybean plants were long-day cultured at 26° C. […]

[4] = 20 μM sprayed once, re-watering after 6 days of drought, FIG. 8

SMILES	EC50 value with PYL2 receptor-HAB1 complex as fraction of that of ABA [1]	leaf temperature versus DMSO control (leaf transpiration) (soybean [2])	growth after drought and re-watering (soybean [3]; [4])	growth after drought and re-watering (soybean [3]; 50 μM sprayed once a day for two days, 9 days of drought, FIG. 14a)
CCCN1C(=O)OC(C)c2cc(NS(=O)(=O)Cc3c(F)c(F)c(C)c(F)c3F)ccc21 (centres unmarked) [Compound 0224]	1/29	significantly reduce the transpiration rate of soybean leaf; also recorded: still significant higher than that of plants in DMSO-sprayed control group	significantly better than that of the control group (DMSO) or that of the soybean treated with same concentration of ABA; also recorded: significantly better growth after re-watering than that in the DMSO-sprayed control group and the plants sprayed with the same concentration of ABA	–
Cc1c(F)c(F)c(CS(=O)(=O)Nc2ccc3c(c2)C(C)OC(=O)N3CCCF)c(F)c1F (centres unmarked) [Compound 0715]	⅕-⅛	–	–	–
CC1=CC(=O)CC(C)(C)[C@@]1(O)/C=C/C(C)=C\C(=O)O [ABA, Abscisic Acid, reference compound]	–	had no difference from that in the control group	–	–
CCCN1C(=O)OC(C)(C)c2cc(NS(=O)(=O)Cc3c(F)c(F)c(C)c(F)c3F)ccc21 [Compound 0304]	1/15	significantly reduce the transpiration rate of soybean leaf; also recorded: still significant higher than that of plants in DMSO-sprayed control group	significantly better than that of the control group (DMSO) or that of the soybean treated with same concentration of ABA; also recorded: significantly better growth after re-watering than that in the DMSO-sprayed control group and the plants sprayed with the same concentration of ABA	–
CCN1C(=O)OC(C)c2cc(NS(=O)(=O)Cc3c(F)c(F)c(C)c(F)c3F)ccc21 (centres unmarked) [Compound 0706]	⅕-⅛	–	–	–
CCCN1C(=O)OCc2cc(NS(=O)(=O)Cc3c(F)c(F)c(C)c(F)c3F)ccc21 [Compound 0428]	about ⅛	–	–	significantly better growth after re-watering than that in the DMSO-sprayed control group
